Assay results from ChEMBL document CHEMBL4602603, “A review on HCV inhibitors: Significance of non-structural polyproteins” (Eur J Med Chem, 2019).
pEC50, pIC50, pKd, pKi: −log10 of the molar value.

What was measured:
Hepatitis C virus [1] = experiment: Antiviral activity against HCV; type: functional, organism-based, Hepacivirus hominis
[2] = biological target: T1, Hepatitis C virus serine protease, NS3/NS4A (Hepatitis C virus, UniProt A3EZI9+D2K2A8); experiment: Inhibition of HCV NS3/4a protease using Ac-DE-Dap(QXL520)-EE-Abu-shi-[COO]AS-C(5-FAMsp)-NH2 as substrate after 15 mins; type: protein-complex assay, Hepacivirus hominis
T1 sequence (D2K2A8 whole entry): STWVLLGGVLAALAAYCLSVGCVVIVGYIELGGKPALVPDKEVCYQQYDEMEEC
T1 sequence (A3EZI9 whole entry): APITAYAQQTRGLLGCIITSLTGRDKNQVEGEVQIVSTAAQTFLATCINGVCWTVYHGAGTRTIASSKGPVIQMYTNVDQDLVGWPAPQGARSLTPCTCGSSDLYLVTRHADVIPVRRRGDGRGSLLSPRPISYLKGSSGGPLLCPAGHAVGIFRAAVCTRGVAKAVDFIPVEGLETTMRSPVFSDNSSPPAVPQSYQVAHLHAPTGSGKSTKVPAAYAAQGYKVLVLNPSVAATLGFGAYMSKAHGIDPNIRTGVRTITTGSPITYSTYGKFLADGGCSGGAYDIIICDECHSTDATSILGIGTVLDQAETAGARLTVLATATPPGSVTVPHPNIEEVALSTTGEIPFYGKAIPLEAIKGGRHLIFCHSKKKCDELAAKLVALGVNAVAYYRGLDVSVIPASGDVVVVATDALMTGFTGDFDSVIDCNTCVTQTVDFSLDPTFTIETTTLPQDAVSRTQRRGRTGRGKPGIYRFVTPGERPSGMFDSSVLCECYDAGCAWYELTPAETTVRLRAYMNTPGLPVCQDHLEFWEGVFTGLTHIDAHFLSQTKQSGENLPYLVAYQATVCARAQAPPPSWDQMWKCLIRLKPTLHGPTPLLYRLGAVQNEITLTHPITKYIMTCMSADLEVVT

[3] = biological target: T2, RNA-directed RNA polymerase (Hepacivirus hominis, UniProt O39930); experiment: Inhibition of HCV NS5B polymerase
T2 sequence (O39930 whole entry): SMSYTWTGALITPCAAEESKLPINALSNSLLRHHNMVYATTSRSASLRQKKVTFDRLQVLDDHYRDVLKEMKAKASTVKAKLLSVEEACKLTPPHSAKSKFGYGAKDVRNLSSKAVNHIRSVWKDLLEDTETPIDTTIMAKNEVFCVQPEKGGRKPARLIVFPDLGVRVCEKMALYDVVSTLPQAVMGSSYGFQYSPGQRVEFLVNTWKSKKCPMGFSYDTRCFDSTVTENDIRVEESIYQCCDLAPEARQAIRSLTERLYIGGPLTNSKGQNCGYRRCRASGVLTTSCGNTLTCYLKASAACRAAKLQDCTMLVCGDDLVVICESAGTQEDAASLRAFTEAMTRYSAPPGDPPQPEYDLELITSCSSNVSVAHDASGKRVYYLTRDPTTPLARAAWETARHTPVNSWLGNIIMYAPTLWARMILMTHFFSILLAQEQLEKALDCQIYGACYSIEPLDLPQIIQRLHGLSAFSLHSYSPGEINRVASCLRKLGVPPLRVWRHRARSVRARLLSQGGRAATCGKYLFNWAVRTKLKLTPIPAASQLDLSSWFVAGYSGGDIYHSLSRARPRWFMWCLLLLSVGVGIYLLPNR

[4] = biological target: T2, RNA-directed RNA polymerase; experiment: Binding affinity to HCV NS5B polymerase
[5] = biological target: T1, Hepatitis C virus serine protease, NS3/NS4A; experiment: Inhibition of HCV NS3/4a protease; type: protein-complex assay, Hepacivirus hominis
[6] = biological target: T1, Hepatitis C virus serine protease, NS3/NS4A; experiment: Inhibition of HCV NS3/4a protease in presence Zn2+; type: protein-complex assay, Hepacivirus hominis
Hepatitis C virus [7] = experiment: Antiviral activity against HCV genotype 1a; type: functional, organism-based, Hepacivirus hominis; settings: subtype 1a
Hepatitis C virus [8] = experiment: Antiviral activity against HCV genotype 1b; type: functional, organism-based, Hepacivirus hominis; settings: subtype 1b
Hepatitis C virus [9] = experiment: Antiviral activity against HCV genotype 3a; type: functional, organism-based, Hepacivirus hominis; settings: subtype 3a

Compound | pEC50 (Hepatitis C virus [1]) | other results
O=C(N[C@@H](Cc1c[nH]c2ccc(O)cc12)c1cscn1)c1ccc2c(c1)nc(-c1ccco1)n2C1CCCCC1 | 5.77 | 
CCCC[C@H](NC(=O)[C@@H]1[C@@H]2[C@H](CN1C(=O)[C@@H](NC(=O)NC1(CS(=O)(=O)C(C)(C)C)CCCCC1)C(C)(C)C)C2(C)C)C(=O)C(=O)NC1CC1 | 7.40 | pKi [2]: 8.22
Nc1nc(C(F)(F)F)cc2c1[nH]c(=O)n2Cc1ccccc1 | 3.99 | 
O=C1Cn2c(c(C3CCCCC3)c3ccc(C(=O)O)cc32)-c2ccccc2N1 | 6.62 | 
Cc1cc2c(-c3ccc[nH]c3=O)c(C(=O)NS(=O)(=O)C3CC3)n(Cc3cc(F)ccc3F)c2cc1F |  | pIC50 [3]: 8.10
C=C[C@@H]1C[C@]1(NC(=O)[C@@H]1C[C@@H](Oc2ncc(OC)c3ccc(Cl)cc23)CN1C(=O)[C@@H](NC(=O)OC(C)(C)C)C(C)(C)C)C(=O)NS(=O)(=O)C1CC1 | 9.00 | 
CN(C)CC1COc2ccc3nc4n(c3c2C1)CC(CN(C)C)CN4 (centres undefined) |  | pKd [4]: 6.14
COc1ccc2c(O[C@@H]3C[C@H]4C(=O)N[C@]5(C(=O)O)C[C@H]5/C=C\CCCCC[C@H](NC(=O)OC5CCCC5)C(=O)N4C3)cc(-c3csc(NC(C)C)n3)nc2c1 | 8.02 | 
COC(=O)N[C@H](C(=O)N1CCC[C@H]1c1nc2ccc(-c3ccc(-c4ccc5nc([C@@H]6CCCN6C(=O)[C@@H](NC(=O)OC)C(C)C)[nH]c5c4)cc3)cc2[nH]1)C(C)C | 9.08 | 
Cc1ccc(NC(=O)c2c(NO)cc(-c3ccccc3)oc2=O)cc1 | 6.74 | 
CC(C)N1CC[C@@H](N2CCn3c(c(C4CCCCC4)c4sc(C(=O)O)cc43)-c3ccccc3C2)C1 | 6.82 | 
O=C(N[C@@H](Cc1c[nH]c2ccccc12)C(=O)O)c1ccc2c(c1)nc(-c1ccoc1)n2C1CCCCC1 |  | pIC50 [4]: 7.72
O=C(NCCCc1ccccc1)c1nc2ccccc2c(=O)n1O |  | pIC50 [4]: 5.06
CN(C)CCCn1c(N)nc2ccc3c(c21)CC(CN(C)C)O3 (centres undefined) |  | pKd [4]: 5.77
CC(=O)N(c1ccc(N2CCOCC2)c(COc2ccc(-c3nc4cc(C(=O)O)ccc4n3C3CCCCC3)c(F)c2)c1)C(C)C | 6.57 | 
Cn1c(Cc2nc3cc(C(N)=O)ccc3[nH]2)nc2ccc(C(=O)NC(CP(=O)(O)O)C(=O)O)cc21 (centres undefined) |  | pKi [5]: 6.00; pKi [6]: 7.57
CN(C)CCCn1c(N)nc2ccccc21 |  | pKd [4]: < 4.00
COc1ccc2c(O[C@@H]3C[C@H]4C(=O)N[C@]5(C(=O)NS(=O)(=O)C6CC6)C[C@H]5/C=C/CCCCN(C)C(=O)[C@@H]4C3)cc(-c3nc(C(C)C)cs3)nc2c1C |  | pIC50 [2]: 7.55 to 8.52
CC[C@@H]1C[C@]1(NC(=O)[C@@H]1C[C@@H]2CN1C(=O)[C@H](C(C)(C)C)NC(=O)OCC(C)(C)CCCCc1cccc3c1CN(C3)C(=O)O2)C(=O)NS(=O)(=O)C1CC1 |  | pIC50 (Hepatitis C virus [1]): 8.52
COc1ccc2cc(O[C@@H]3C[C@@H](C(=O)NC4(C(=O)O)CC4)N(C(=O)[C@@H](NC(=O)[C@@H](NC(C)=O)C4CCCCC4)C(C)C)C3)cnc2c1 |  | pIC50 [5]: 6.10
CC1COc2cc3c(-c4ccc[nH]c4=O)c(C(=O)NS(C)(=O)=O)n(Cc4cc(F)ccc4F)c3cc21 (centres undefined) |  | pIC50 [3]: 7.82 to 8.22
C/C(=C/c1cc(-c2ccc(OCc3cc(CN4CCC(O)CC4=O)ccc3-c3ccc(C#N)cc3)cc2)n(C2CCCCC2)n1)C(=O)O (centres undefined) | 6.40 | 
CC(=O)N[C@@H](C(=O)O)C(=O)N[C@@H](CCC(=O)O)C(=O)N[C@H](C(=O)N[C@@H](CCC(=O)O)C(=O)N[C@@H](CC1CCCCC1)C(=O)N[C@@H](CC(F)F)C(=O)O)C(c1ccccc1)c1ccccc1 |  | pKi [5]: 7.70

Compound | pEC50 (Hepatitis C virus [1]) | other results
CN(C)CCN(C)[C@@H]1Cn2c(c(C3CCCCC3)c3ccc(C(=O)O)cc32)-c2ccccc2O1 | 7.42 | 
Nc1cc(Cn2c(C(=O)O)c(-c3ccc[nH]c3=O)c3ccc(Cl)cc32)ccn1 | 5.32 | pIC50 [3]: 7.28
Cn1c(-c2ccco2)c(C2CCCCC2)c2ccc(C(=O)N[C@@H](Cc3c[nH]c4ccc(O)cc34)c3cscn3)cc21 | 7.30 | 
COc1ccc2c(c1)[C@H]1[C@@H](CCN1CCN(C)C)CCn1c-2c(C2CCCCC2)c2ccc(C(=O)O)cc21 | 7.54 | 
COc1ccc2c(c1)C=C(c1c(C(=O)C3C4CCCC3COC4)cnn1-c1ccncc1C)Cn1c-2c(C2CCCCC2)c2ccc(C(=O)NS(=O)(=O)C(C)C)cc21 (centres undefined) | 8.40 | 
Cn1c(-c2ccc(OCc3cc(N4CCCC4=O)ccc3N3CCOCC3)cc2)c(C2CCCCC2)c2sc(C(=O)O)cc21 | 7.28 | 
CC(=O)N[C@@H](C(=O)O)C(=O)N[C@@H](CCC(=O)O)C(=O)N[C@H](C(=O)N[C@H](C(=O)N1C[C@H](OCc2ccccc2)C[C@H]1C(=O)NC(CS)C(=O)O)C(C)C)C1CCCCC1 (some centres undefined) |  | pIC50 [5]: 7.48
CCCC1(CC(=O)O)OCCC2c3c(CC)ccc(Cl)c3NC21 (centres undefined) |  | pIC50 [3]: 5.52
O=C(O)C1C(c2ccccc2)c2ccccc2C(=O)N1O (centres undefined) |  | pIC50 [4]: 4.80
CC(C)C[C@H](NC[C@H](CC(=O)O)NC(=O)[C@H](CC1CCCCC1)NC(=O)[C@@H]1CCCC[C@H]1C(=O)O)C(N)=O |  | pIC50 [5]: 4.82
CS(=O)(=O)Nc1cccc(S(=O)(=O)NC(=O)c2c(-c3ccc[nH]c3=O)c3ccc(Cl)cc3n2Cc2ccnc(N)c2)c1 | 7.96 | pIC50 [3]: 7.41
COC(=O)N[C@H](C(=O)N1C[C@H](C)C[C@@H]1c1nc2sc(-c3ccc(-c4ccc(-c5c[nH]c([C@@H]6[C@H](C)CCN6C(=O)[C@H](NC(=O)OC)C(C)C)n5)cc4)cc3)cc2[nH]1)C(C)C |  | pEC50 (Hepatitis C virus [7]): 10.77; pEC50 (Hepatitis C virus [8]): 11.10
Cc1c(C(=O)O)sc2c(C3CCCCC3)c(-c3ccccc3)n(CC(=O)N(C)C3CCN(C(C)C)C3)c12 (centres undefined) | 6.89 | 
CCN(CC)C1CCN(C(=O)Cn2c(-c3ccco3)c(C3CCCCC3)c3ccc(C(=O)NS(=O)(=O)N(C)C)cc32)CC1 | 6.92 | 
CC(=O)N[C@@H](C(=O)O)C(=O)N[C@@H](CCC(=O)O)C(=O)N[C@H](C(=O)N[C@@H](CCC(=O)O)C(=O)N[C@@H](CC1CCCCC1)C(=O)N[C@@H](CS)C(=O)O)C(c1ccccc1)c1ccccc1 |  | pKi [5]: 7.40
CCN(CC)C1CCN(C(=O)Cn2c(-c3ccccc3)c(C3CCCCC3)c3ccc(C(=O)O)cc32)CC1 | 6.10 | 
CC(C)C[C@H](NC(=O)[C@H](CC(=O)O)NC(=O)OC(C)C)C(=O)N[C@@H](CC(F)(F)F)C(=O)NCCc1ccc(C(=O)O)cc1Cl |  | pKi [5]: 6.22
C=C[C@H]1C[C@]1(NC(=O)[C@@H]1C[C@@H]2CN1C(=O)[C@H](C(C)(C)C)NC(=O)O[C@@H]1C[C@H]1CCCCCc1c(nc3ccccc3c1OC1CC3CCC(C1)N3C)O2)C(=O)NS(=O)(=O)C1(C)CC1 (some centres undefined) |  | pEC50 (Hepatitis C virus [8]): 9.21; pEC50 (Hepatitis C virus [9]): 9.59
CC(=O)N[C@@H](C(=O)O)C(=O)N[C@@H](CCC(=O)O)C(=O)N[C@H](C(=O)N[C@H](C(=O)N1C[C@H](OCc2ccccc2)C[C@H]1C(=O)NC1(C(=O)O)CC1)C(C)C)C1CCCCC1 |  | pIC50 [5]: 7.29
N#Cc1c(Cl)cc(Cl)cc1COc1cccc(C(=O)/C=C(\O)C(=O)O)c1 |  | pIC50 [4]: 4.35
CCc1nc2c(N)nc3ccccc3c2n1CCCCNS(C)(=O)=O [CPG-52852] | 4.00 | 
C=C[C@@H]1C[C@]1(NC(=O)[C@@H]1C[C@@H]2CN1C(=O)[C@H](C(C)(C)C)NC(=O)O[C@@H]1C[C@H]1CCCCCc1nc3ccc(OC)cc3nc1O2)C(=O)NS(=O)(=O)C1CC1 [GRAZOPREVIR ANHYDROUS] | 8.02 | 
COc1ccc2c(c1)C=C1Cn3c-2c(C2CCCCC2)c2ccc(cc23)C(=O)NS(=O)(=O)N(C)CCOCCN(C)C1=O [TMC-647055] | 7.09 | 

Continued, in another order:

pEC50 (Hepatitis C virus [1]) | Compound | other results
5.66 | CCCCn1cc(/C=C2\Oc3cc(O)cc(O)c3C2=O)c2ccccc21 | 
4.70 | COCCOc1nc(N)c2[nH]c(=O)n(Cc3ccccc3)c2n1 | 
5.54 | CN(C)C(=O)Cn1c(-c2ccccc2)c(C2CCCCC2)c2sc(C(=O)O)cc21 | 
6.40 | O=C(O)c1ccc2c(C3CCCCC3)c3n(c2c1)CCN(CCN1CCCCC1)c1ccccc1-3 | 
8.12 | O=C(O)c1ccc2c(C3CCCCC3)c3n(c2c1)CCOc1cc(OCc2cc(N4CCCC4=O)ccc2N2CCOCC2)ccc1-3 | 
9.00 | CCc1ccc2c(-c3ccc[nH]c3=O)c(C(=O)NS(=O)(=O)C3CC3)n(Cc3cc([N+](=O)[O-])ccc3F)c2c1 | 
7.05 | Cc1ccc2c(-c3ccc[nH]c3=O)c(C(=O)NS(=O)(=O)C3CC3)n(Cc3cc(F)ccc3F)c2c1 | pIC50 [3]: 8.30
6.85 | CN(C)CCN1CCn2c(c(C3CCCCC3)c3ccc(C(=O)O)cc32)-c2ccccc2C1 | 
7.76 | CC(C)(C)OC(=O)N[C@H]1CCCCC/C=C\[C@@H]2C[C@@]2(C(=O)NS(=O)(=O)C2CC2)NC(=O)[C@@H]2C[C@@H](OC(=O)N3Cc4cccc(F)c4C3)CN2C1=O [DANOPREVIR] | pIC50 [2]: 8.46 to 9.70
6.00 | CC(C)Cn1cnc2c(N)nc3ccccc3c21 [IMIQUIMOD] | 
